Laboratory results from patent US9579299B2, “CNS pharmaceutical compositions and methods of use” (TARGIA PHARMACEUTICALS, priority 2008, dated 2017).
Like-named read-outs stand apart in the source and are kept apart here.

Experiments:
[1] = antiparkinsonian drugs; cited from earlier work
[2] = cited from earlier work
[3] = parent drug; cited from earlier work
treated patients = settings: cited from earlier work; for Psychiatric side-effects: anti-epileptics
[4] = in vivo; cited from earlier work
healthy volunteer = experiment: Example 2: volunteer with lower back pain, Soma with neuromodulators; type: in vivo, human
Description: A healthy volunteer was prescribed 250 mg two times a day Soma by their family doctor for reduction of lower back pain. […] The volunteer agreed to take Soma during the day together with the neuromodulation treatment. They took Soma in the morning and afternoon together with Pseudoephedrine followed 15 minutes later by Guaifenisin.

patient = experiment: Example 1: patient with tooth pain, Soma with neuromodulators; type: in vivo, human; settings: Soma with 60 mg Pseudoephedine, 600 mg Guaifenesin 10 min later
Description: A patient had experienced tooth pain. The patient was given the following treatment: at 11:00 a.m.-co-administration of Soma (Carisoprodol) with 60 mg of Pseudoephedine. At 11:10 a.m.-600 mg of Guaifenesin. […] At no time during the treatment did the patient feel somnolent or have any desire to sleep.

[5] = cited from earlier work; remark: listed apart in the source
subject = experiment: Example 4: Flunitrazepam with pseudoephedrine and Mucinex, subject report
[6] = cited from earlier work; remark: listed apart in the source
[7] = cited from earlier work; remark: listed apart in the source
[8] = stated in words (injection / IV)
[9] = Soma with Pseudoephedrine, Guaifenisin 15 minutes later, two-day regimen
[10] = oral ingestion 75-100 mg/kg in humans

CN1CCc2cccc3c2[C@H]1Cc1ccc(O)c(O)c1-3 [Apomorphine]
Psychiatric side-effects [1]: Sedation, psychomotor agitation, anxiety,
Tmax [2, 8]: (fast, but injection)

NCC(CC(=O)O)c1ccc(Cl)cc1 (stereo not shown) [Baclofen]
Half-life ([2]; in vivo): 1.5 to 4 h
Tmax ([2]; in vivo): 0.5 to 1 h

CN1[C@@H]2CC[C@H]1C[C@@H](OC(c1ccccc1)c1ccccc1)C2 [Benzatropine]
Psychiatric side-effects [1]: Sedation, anxiety, psychosis, delirium,
Half-life ([2]; in vivo): 36 h
Tmax ([2]; in vivo): 1 to 2 h

OC(CCN1CCCCC1)(c1ccccc1)C1CC2C=CC1C2 (stereo not shown) [Biperiden]
Half-life ([2]; in vivo): 18 to 24 h
Tmax ([2]; in vivo): 1.5 h

O=C1CN=C(c2ccccn2)c2cc(Br)ccc2N1 [Bromazepam]
Elimination Half-Life [3]: 10 to 20 h

CC(C)C[C@H]1C(=O)N2CCC[C@H]2[C@]2(O)O[C@](NC(=O)[C@@H]3C=C4c5cccc6[nH]c(Br)c(c56)C[C@H]4N(C)C3)(C(C)C)C(=O)N12 [Bromocriptine]
Psychiatric side-effects [1]: Sedation, psychomotor agitation, anxiety,
Half-life ([2]; in vivo): 7 h
Tmax ([2]; in vivo): 1 to 2 h

C=CCN1C[C@H](C(=O)N(CCCN(C)C)C(=O)NCC)C[C@@H]2c3cccc4[nH]cc(c34)C[C@H]21 [Cabergoline]
Psychiatric side-effects [1]: Sedation, psychomotor agitation, anxiety,
Half-life ([2]; in vivo): 63 to 69 h
Tmax ([2]; in vivo): 0.5 to 4 h

NC(=O)N1c2ccccc2C=Cc2ccccc21 [Carbamazepine]
Psychiatric side-effects (treated patients): Depression, agitation, sedation, psychosis, cognitive
Elimination Half-Life [4]: about 12 hours

CCCC(C)(COC(N)=O)COC(=O)NC(C)C (stereo not shown) [Carisoprodol]
sedative side-effect (healthy volunteer; Soma 250 mg two times a day alone): suffered from the sedative side-effect of Soma
back pain (healthy volunteer; [9]): back pain was effectively reduced
sedation reported (healthy volunteer; [9]): did not feel sedated
sedation or other side-effects reported by patient (patient): without any sedation or other side-effects
pain reported by patient (patient; tooth pain): less pain than prior to the procedure
Half-life ([2]; in vivo): 2.5 h
Tmax ([2]; in vivo): 1.5 to 2 h

CNC1=Nc2ccc(Cl)cc2C(c2ccccc2)=[N+]([O-])C1 [Chlordiazepoxide]
Elimination Half-Life [3]: 5 to 30 h

N#CCCN1C(=O)C(O)N=C(c2ccccc2F)c2cc(Cl)ccc21 (stereo not shown) [Cinolazepam]
Elimination Half-Life [3]: 9 h

CN1C(=O)CC(=O)N(c2ccccc2)c2cc(Cl)ccc21 [Clobazam]
Elimination Half-Life [3]: 12 to 60 h

O=C1CN=C(c2ccccc2Cl)c2cc([N+](=O)[O-])ccc2N1 [Clonazepam]
Tmax ([5]; CNS active agent): 4 h
bioactivity ([5]; CNS active agent): 90%
Elimination Half-Life [3]: 18 to 50 h

CN1CCN(C2=Nc3cc(Cl)ccc3Nc3ccccc32)CC1 [Clozapine]
Tmax ([5]; CNS active agent): 2.5 h

CN(C)CCC=C1c2ccccc2C=Cc2ccccc21 [Cyclobenzaprine]
Elimination Half-Life [4]: 24 to 72 h
Half-life ([2]; in vivo): 8 to 37 h
Tmax ([2]; in vivo): 1 to 2 h
Half-life ([2]; in vivo, listed as Flexeril): 24 to 72 h
Tmax ([2]; in vivo, listed as Flexeril): 1 h

CN1C(=O)CN=C(c2ccccc2)c2cc(Cl)ccc21 [Diazepam]
bioactivity ([5]; CNS active agent): 97%

Clc1ccc2c(c1)C(c1ccccc1)=NCc1nncn1-2 [Estazolam]
Elimination Half-Life [3]: 10 to 24 h

Fc1ccc(C(c2ccc(F)cc2)N2CCN(C/C=C/c3ccccc3)CC2)cc1 [Flunarizine]
Half-life ([2]; in vivo): 456 h
Tmax ([2]; in vivo): 1 h

CN1C(=O)CN=C(c2ccccc2F)c2cc([N+](=O)[O-])ccc21 [Flunitrazepam]
subject-reported effects (subject; Flunitrazepam 0.5 mg, 15 minutes later pseudoephedrine 60 mg and Mucinex 600 mg): a little “loopy”
subject-reported effects (subject; Flunitrazepam 1.0 mg, at the same time pseudoephedrine 60 mg and Mucinex 600 mg): started to feel tranquilized

O=C(O)CCCO [GHB, g-Hydroxybutyric acid]
Tmax ([6]; 25 mg/kg): approximately 30 minutes
Tmax ([6]; 50 mg/kg): around 45 minutes
peak blood levels [6, 10]: 90 to 100 µg/mL
time of peak blood levels after ingestion [6, 10]: 1 to 2 h
onset of action ([6]; orally): ≤ 15 min
Tmax ([5]; CNS active agent): 0.5 to 2 h

NCC1(CC(=O)O)CCCCC1 [Gabapentin, 1-(aminomethyl)-cyclohexylacetic acid]
Psychiatric side-effects (treated patients): Sedation, agitation, fatigue

CC1=CC(=O)N2CC(=O)N(C)c3ccc(Cl)cc3C2(c2ccccc2)O1 (stereo not shown) [Ketazolam]
Elimination Half-Life [3]: 2 h

Nc1nnc(-c2cccc(Cl)c2Cl)c(N)n1 [Lamotrigine]
Psychiatric side-effects (treated patients): Sedation, depression, agitation, psychosis
Psychosis, % of treated patients (treated patients): (0.3% of treated patients)

CC[C@@H](C(N)=O)N1CCCC1=O [Levetiracetam]
Psychiatric side-effects (treated patients): Irritability, sedation and psychosis

CCN(CC)C(=O)N[C@H]1C=C2c3cccc4[nH]cc(c34)C[C@H]2N(C)C1 [Lisuride]
Half-life ([2]; in vivo): 2 h
Tmax ([2]; in vivo): 1.1 to 1.3 h

CN1CCN(/C=C2\N=C3CN=C(c4ccccc4Cl)c4cc([N+](=O)[O-])ccc4N3C2=O)CC1 [Loprazolam]
Elimination Half-Life [3]: 6 to 12 h

CN1C(=O)C(O)N=C(c2ccccc2Cl)c2cc(Cl)ccc21 (stereo not shown) [Lormetazepam]
Elimination Half-Life [3]: 10 to 12 h

CN1CCN=C(c2ccccc2)c2cc(Cl)ccc21 [Medazepam]
Elimination Half-Life [3]: 36 to 200 h

CCOC(=O)C1(c2ccccc2)CCN(C)CC1 [Meperidine(Pethidine), Meperidine]
Half-life ([2]; in vivo): 3 to 5 h
Tmax ([2]; oral): oral, up to 1.5 h
Tmax [2, 8]: IV, several min

Cc1cc(C)cc(OCC2CNC(=O)O2)c1 (stereo not shown) [Metaxalone]
duration ([7]; in vivo): four to six hours
Half-life ([2]; in vivo): 5 to 12 h
Tmax ([2]; in vivo): 3 h

CCC(=O)C(CC(C)N(C)C)(c1ccccc1)c1ccccc1 (stereo not shown) [Methadone]
Tmax ([2]; in vivo): 1 to 7.5 h

COc1ccccc1OCC(O)COC(N)=O (stereo not shown) [Methocarbamol]
Half-life ([2]; in vivo): 1 to 2 h
Tmax ([2]; in vivo): 1 to 2 h
Half-life ([2]; in vivo, listed as Robaxin): 1.14 to 1.24 h
Tmax ([2]; in vivo, listed as Robaxin): 0.5 to 1 h

COc1ccc2c(c1)N(C[C@H](C)CN(C)C)c1ccccc1S2 [Methotrimeprazine]
Half-life ([2]; in vivo): 20 h
Tmax ([2]; in vivo): 1 to 4 h

COCCc1ccc(OCC(O)CNC(C)C)cc1 (stereo not shown) [Metoprolol]
Half-life ([2]; in vivo): 3 to 7 h
Tmax ([2]; in vivo): (fast) up to 1 h

COc1ccc(OC)c(C(O)CNC(=O)CN)c1 (stereo not shown) [Mitodrin]
Tmax ([5]; selected neuromodulators): 0.25 to 0.5 h

O=C1CN=C(c2ccccc2)c2cc([N+](=O)[O-])ccc2N1 [Nitrazepam]
Elimination Half-Life [3]: 15 to 38 h

Cc1cc2c(s1)Nc1ccccc1N=C2N1CCN(C)CC1 [Olanzapine]
Tmax ([5]; CNS active agent): 5 to 8 h
bioactivity ([5]; CNS active agent): 40%

Cc1ccccc1C(OCCN(C)C)c1ccccc1 (stereo not shown) [Orphenadrine]
Half-life ([2]; in vivo): 13 to 20 h
Tmax ([2]; in vivo): 2 h

CCC1(c2ccccc2)C(=O)NC(=O)NC1=O [Phenobarbital, 5-ethyl-5-phenyl barbituric acid]
Tmax ([5]; CNS active agent): 2 h

CNC[C@H](O)c1cccc(O)c1 [Phenylephrine]
duration of anti-hypotensive effect ([7]; after a single intravascular injection): approximately 20 minutes
Tmax ([5]; selected neuromodulators): 0.167 to 0.25 h

CCCN[C@H]1CCc2nc(N)sc2C1 [Pramipexole]
Psychiatric side-effects [1]: Sedation, psychomotor agitation, anxiety,
Tmax ([2]; in vivo): 1 h

CCC1(c2ccccc2)C(=O)NCNC1=O [Primidone]
Psychiatric side-effects (treated patients): Sedation, mood lability, psychotic symptoms, delirium

CN[C@@H](C)[C@@H](O)c1ccccc1 [Pseudoephedrine]
Tmax ([5]; selected neuromodulators): 0.5 to 1 h

Fc1ccccc1C1=NCC(=S)N(CC(F)(F)F)c2ccc(Cl)cc21 [Quazepam]
Elimination Half-Life [3]: 25 to 100 h

CCCN(CCC)CCc1cccc2c1CC(=O)N2 [Ropinirole]
Psychiatric side-effects [1]: Sedation, psychomotor agitation, anxiety,
Half-life ([2]; in vivo): 6 h
Tmax ([2]; in vivo): 1 to 2 h

CCCC(CCC)C(=O)[O-].[Na+] [Sodium valproate]
Psychiatric side-effects (treated patients): Sedation, hallucinations, depressive symptoms, delirium

CN1C(=O)CN=C(C2=CCCCC2)c2cc(Cl)ccc21 [Tetrazepam]
Elimination Half-Life [3]: 3 to 26 h

Cc1ccsc1C(=CCCN1CCC[C@@H](C(=O)O)C1)c1sccc1C [Tiagabine]
Psychiatric side-effects (treated patients): Psychosis (0.8% of treated patients), depressive symptoms
Psychosis, % of treated patients (treated patients): 0.8%

C=CC(N)CCC(=O)O (stereo not shown) [Vigabatrin (GVG), Gamma vinyl GABA]
Tmax ([5]; CNS active agent): 0.4 to 1 h

CCCN1C[C@H](CSC)C[C@@H]2c3cccc4[nH]cc(c34)C[C@H]21 [pergolide]
Psychiatric side-effects [1]: Sedation, psychomotor agitation, anxiety,
